Patent US10899738B2 (THE REGENTS OF THE UNIVERSITY OF MICHIGAN, priority 2016, dated 2021)

Target: menin protein (Homo sapiens (Human), UniProt O00255)
Assay: biochemical
Assay type: binding
Details: FP competitive binding; menin protein 4 nM, FAM-MM2 probe 2 nM; read-out: Menin Binding Affinity IC50
Protocol: A fluorescence polarization (FP) competitive binding assay was used to determine the binding affinities of representative menin inhibitors. A FAM labeled fluorescent probe was designed and synthesized based on a MLL1 peptide (FAM-MM2). Equilibrium dissociation constant (Kd) value of FAM-MM2 to menin protein was determined from protein saturation experiments by monitoring the total fluorescence polarization of mixtures composed with the fluorescent probe at a fixed concentration and the protein with increasing concentrations up to full saturation. Serial dilutions of the protein were mixed with FAM-MM2 to a final volume of 200 μl in the assay buffer (PBS with 0.02% Bovine γ-Globulin and 4% DMSO. 0.01% Triton X-100 was added right before assays). Final FAM-MM2 concentration was 2 nM. Plates were incubated at room temperature for 30 minutes with gentle shaking to assure equilibrium.
The IC50, see Table 3, and Ki values of representative Compounds of the Disclosure were determined in a competitive binding experiment. Mixtures of 5 μl of the tested compounds in DMSO and 195 μl of preincubated protein/probe complex solution in the assay buffer were added into assay plates which were incubated at room temperature for 30 minutes with gentle shaking. Final concentration of the menin protein was 4 nM, and final probe concentration is 2 nM. […] FP values were measured as described above. IC50 values were determined by nonlinear regression fitting of the competition curves.

Chain of menin protein (O00255 whole entry): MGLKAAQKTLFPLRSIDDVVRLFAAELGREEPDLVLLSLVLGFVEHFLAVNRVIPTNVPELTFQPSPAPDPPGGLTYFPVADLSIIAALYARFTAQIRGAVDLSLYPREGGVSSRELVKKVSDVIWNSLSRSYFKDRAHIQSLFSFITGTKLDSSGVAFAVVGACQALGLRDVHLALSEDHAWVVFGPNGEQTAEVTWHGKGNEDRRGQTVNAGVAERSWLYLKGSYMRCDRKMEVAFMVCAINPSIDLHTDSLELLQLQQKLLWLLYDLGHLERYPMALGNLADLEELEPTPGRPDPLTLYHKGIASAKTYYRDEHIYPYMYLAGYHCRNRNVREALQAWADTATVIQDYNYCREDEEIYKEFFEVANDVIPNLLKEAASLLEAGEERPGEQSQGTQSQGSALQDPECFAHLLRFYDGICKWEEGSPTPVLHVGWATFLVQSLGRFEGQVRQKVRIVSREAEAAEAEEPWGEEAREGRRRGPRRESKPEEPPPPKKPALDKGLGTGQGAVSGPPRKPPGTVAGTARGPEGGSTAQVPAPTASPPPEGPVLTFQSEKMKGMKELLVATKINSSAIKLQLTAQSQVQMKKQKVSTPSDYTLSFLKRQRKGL

Structure (SMILES)	IC50
CS(=O)(=O)C[C@H]1CCC[C@@H]1C(C#N)(c1ccccc1)C1CCN(CC2CN(c3ccc(S(=O)(=O)c4ccncc4)cc3)C2)CC1 (mixture of isomers) [compound 255, rac-2-((1S,2S)-2-((methylsulfonyl)methyl)cyclopentyl)-2-phenyl-2-(1-((1-(4-(pyridin-4-ylsulfonyl)phenyl)azetidin-3-yl)methyl)piperidin-4-yl)acetonitrile]	4.7 µM
CS(=O)(=O)C[C@@H]1CCC[C@H]1C(C#N)(c1ccccc1)C1CCN(CC2CN(c3ccc(S(=O)(=O)c4ccncc4)cc3)C2)CC1 (mixture of isomers) [compound 256, rac-2-((1R,2R)-2-((methylsulfonyl)methyl)cyclopentyl)-2-phenyl-2-(1-((1-(4-(pyridin-4-ylsulfonyl)phenyl)azetidin-3-yl)methyl)piperidin-4-yl)acetonitrile]	3.3 µM
N#CC(c1ccccc1)(C1CCN(CC2CN(c3ccc(S(=O)(=O)c4ccncc4)cc3)C2)CC1)[C@@H]1CCC[C@H]1CO (mixture of isomers) [compound 257, rac-2-((1R,2R)-2-(hydroxymethyl)cyclopentyl)-2-phenyl-2-(1-((1-(4-(pyridin-4-ylsulfonyl)phenyl)azetidin-3-yl)methyl)piperidin-4-yl)acetonitrile]	4.6 µM
N#CC(c1ccccc1)(C1CCN(CC2CN(c3ccc(S(=O)(=O)c4ccncc4)cc3)C2)CC1)[C@H]1CCC[C@@H]1CO (mixture of isomers) [compound 258, rac-2-((1S,2S)-2-(hydroxymethyl)cyclopentyl)-2-phenyl-2-(1-((1-(4-(pyridin-4-ylsulfonyl)phenyl)azetidin-3-yl)methyl)piperidin-4-yl)acetonitrile]	0.563 µM
CSC[C@H]1CCC[C@@H]1C(C#N)(c1ccccc1)C1CCN(CC2CN(c3ccc(S(=O)(=O)c4ccncc4)cc3)C2)CC1 (mixture of isomers) [compound 259, rac-2-((1S,2S)-2-((methylthio)methyl)cyclopentyl)-2-phenyl-2-(1-((1-(4-(pyridin-4-ylsulfonyl)phenyl)azetidin-3-yl)methyl)piperidin-4-yl)acetonitrile]	10.3 µM
CSC[C@@H]1CCC[C@H]1C(C#N)(c1ccccc1)C1CCN(CC2CN(c3ccc(S(=O)(=O)c4ccncc4)cc3)C2)CC1 (mixture of isomers) [compound 260, rac-2-((1R,2R)-2-((methylthio)methyl)cyclopentyl)-2-phenyl-2-(1-((1-(4-(pyridin-4-ylsulfonyl)phenyl)azetidin-3-yl)methyl)piperidin-4-yl)acetonitrile]	17 µM
CC(=O)OC[C@H]1CCC[C@@H]1C(C#N)(c1ccccc1)C1CCN(CC2CN(c3ccc(S(=O)(=O)C4CC4)cc3)C2)CC1 (mixture of isomers) [compound 261, rac-((1S,2S)-2-(cyano(1-((1-(4-(cyclopropylsulfonyl)phenyl)azetidin-3-yl)methyl)piperidin-4-yl)(phenyl)methyl)cyclopentyl) methyl acetate]	9.3 µM
CC(=O)OC[C@@H]1CCC[C@H]1C(C#N)(c1ccccc1)C1CCN(CC2CN(c3ccc(S(=O)(=O)C4CC4)cc3)C2)CC1 (mixture of isomers) [compound 262, rac-((1R,2R)-2-(cyano(1-((1-(4-(cyclopropylsulfonyl)phenyl)azetidin-3-yl)methyl)piperidin-4-yl)(phenyl)methyl)cyclopentyl) methyl acetate]	6.9 µM
CC(=O)N[C@@H]1CCC[C@H]1C(C#N)(c1ccccc1)C1CCN(CC2CN(c3ccc(S(=O)(=O)c4ccncc4)cc3)C2)CC1 (mixture of isomers) [compound 264, rac-N-((1R,2S)-2-(cyano(phenyl)(1-((1-(4-(pyridin-4-ylsulfonyl)phenyl)azetidin-3-yl)methyl)piperidin-4-yl)methyl)cyclopentyl) acetamide]	0.555 µM
COC[C@H]1CCC[C@@H]1C(C#N)(c1ccccc1)C1CCN(CC2CN(c3ccc(S(=O)(=O)C4CC4)cc3)C2)CC1 (mixture of isomers) [compound 265, rac-2-(1-((1-(4-(cyclopropylsulfonyl)phenyl)azetidin-3-yl)methyl)piperidin-4-yl)-2-((1S,2S)-2-(methoxymethyl)cyclopentyl)-2-phenylacetonitrile]	4.9 µM
COC[C@@H]1CCC[C@H]1C(C#N)(c1ccccc1)C1CCN(CC2CN(c3ccc(S(=O)(=O)C4CC4)cc3)C2)CC1 (mixture of isomers) [compound 266, rac-2-(1-((1-(4-(cyclopropylsulfonyl)phenyl)azetidin-3-yl)methyl)piperidin-4-yl)-2-((1R,2R)-2-(methoxymethyl)cyclopentyl)-2-phenylacetonitrile]	4.5 µM
CS(=O)(=O)N[C@H]1CCC[C@@H]1C(C#N)(c1ccccc1)C1CCN(CC2CN(c3ccc(S(=O)(=O)c4ccncc4)cc3)C2)CC1 (mixture of isomers) [compound 267, rac-N-((1S,2R)-2-(cyano(phenyl)(1-((1-(4-(pyridin-4-ylsulfony)phenyl)azetidin-3-yl)methyl)piperidin-4-yl)methyl)cyclopentyl) methanesulfonamide]	0.437 µM
CS(=O)(=O)N[C@@H]1CCC[C@H]1C(C#N)(c1ccccc1)C1CCN(CC2CN(c3ccc(S(=O)(=O)c4ccncc4)cc3)C2)CC1 (mixture of isomers) [compound 268, rac-N-((1R,2S)-2-(cyano(phenyl)(1-((1-(4-(pyridin-4-ylsulfonyl)phenyl)azetidin-3-yl)methyl)piperidin-4-yl)methyl)cyclopentyl) methanesulfonamide]	4.7 µM
CNC(=O)N[C@@H]1CCC[C@H]1C(C#N)(c1ccccc1)C1CCN(CC2CN(c3ccc(S(=O)(=O)c4ccncc4)cc3)C2)CC1 (mixture of isomers) [compound 270, rac-1-((1R,2S)-2-(cyano(phenyl)(1-((1-(4-(pyridin-4-ylsulfonyl)phenyl)azetidin-3-yl)methyl)piperidin-4-yl)methyl)cyclopentyl)-3-methylurea]	0.881 µM
CN([C@H]1CCC[C@@H]1C(C#N)(c1ccccc1)C1CCN(CC2CN(c3ccc(S(=O)(=O)C4CC4)cc3)C2)CC1)S(C)(=O)=O (mixture of isomers) [compound 273, rac-N-((1S,2R)-2-(cyano(1-((1-(4-(cyclopropylsulfonyl)phenyl)azetidin-3-yl)methyl)piperidin-4-yl)(phenyl)methyl)cyclopentyl)-N-methylmethanesulfonamide]	37.6 µM
CN([C@@H]1CCC[C@H]1C(C#N)(c1ccccc1)C1CCN(CC2CN(c3ccc(S(=O)(=O)C4CC4)cc3)C2)CC1)S(C)(=O)=O (mixture of isomers) [compound 274, rac-N-((1R,2S)-2-(cyano(1-((1-(4-(cyclopropylsulfonyl)phenyl)azetidin-3-yl)methyl)piperidin-4-yl)(phenyl)methyl)cyclopentyl)-N-methanesulfonamide]	19.2 µM
CN(C)C(=O)N[C@@H]1CCC[C@H]1C(C#N)(c1ccccc1)C1CCN(CC2CN(c3ccc(S(=O)(=O)c4ccncc4)cc3)C2)CC1 (mixture of isomers) [compound 276, rac-3-((1R,2S)-2-(cyano(phenyl)(1-((1-(4-(pyridin-4-ylsulfonyl)phenyl)azetidin-3-yl)methyl)piperidin-4-yl)methyl)cyclopentyl)-1,1-dimethylurea]	1.2 µM
CN1COCN([C@H]2CCC[C@@H]2C(C#N)(c2ccccc2)C2CCN(CC3CN(c4ccc(S(=O)(=O)c5ccncc5)cc4)C3)CC2)C1=O (mixture of isomers) [compound 279, rac-2-((1R,2S)-2-(5-methyl-4-oxo-1,3,5-oxadiazinan-3-yl)cyclopentyl)-2-phenyl-2-(1-((1-(4-(pyridin-4-ylsulfonyl)phenyl)azetidin-3-yl)methyl)piperidin-4-yl)acetonitrile]	0.065 µM
